Data: patent publication US8916498B2, “Safening 6-(trisubstituted phenyl)-4-amino-2-pyridinecarboxylate herbicide injury on direct seeded and transplanted paddy rice” (priority 2008, dated 2014)

Tests used:
[1] = tested on: ORYSA (rice); assay: Postemergence herbicidal safening in direct seeded rice, visual injury; settings: for ‘M202’ ORYSA Visual Injury (%) Obs: Safener Alone, 560 g ai/ha; for ‘M202’ ORYSA Visual Injury (%) Obs / Visual Injury (%) ‘Lemont’ ORYSA Obs: after 3 weeks
Excerpt: A=observed efficacy of active ingredient A at the same concentration as used in the mixture.
B=observed efficacy of active ingredient B at the same concentration as used in the mixture.

[2] = tested on: SEBEX; assay: Postemergence herbicidal safening in direct seeded rice, visual injury on weed; assay type: in vivo; settings: alone, after 3 weeks
[3] = tested on: ECHCO; assay: as above; assay type: in vivo; settings: alone, after 3 weeks
[4] = tested on: CYPDI; assay: as above; assay type: in vivo; settings: alone, after 3 weeks
[5] = alone, 8.75 g ae/ha, after 3 weeks (Table 14)
[6] = No safener, 35 g ai/ha, after 3 weeks (Table 13)
[7] = alone, 70 g ae/ha, after 3 weeks (Table 14)

## C#CCOC(=O)c1nc(-c2ccc(Cl)c(OC)c2F)cc(N)c1Cl [Compound 1 Propargyl Ester]
[1]; [5]
  ORYSA Visual Injury (%) ‘Cheniere’ Obs: 55%
  ORYSA Visual Injury (%) ‘Clearfield’ Obs: 50%
  ORYSA Visual Injury (%) ‘Cocodrie’ Obs: 35%
  ORYSA Visual Injury (%) ‘Lemont’ Obs: 30%
  ORYSA Visual Injury (%) ‘M202’ Obs: 55%
  ORYSA Visual Injury (%) ‘Wells’ Obs: 10%

## CCCCOC(=O)c1nc(-c2ccc(Cl)c(OC)c2F)cc(N)c1Cl [Compound 1 n-Butyl Ester]
[1]; [6]
  ORYSA Visual Injury (%) ‘Cheniere’ Obs: 25%
  ORYSA Visual Injury (%) ‘Cocodrie’ Obs: 20%
  ORYSA Visual Injury (%) ‘M202’ Obs: 28%

## CCCOC(=O)c1nc(-c2ccc(Cl)c(OC)c2F)cc(N)c1Cl [Compound 1 n-Propyl Ester]
[1]; [7]
  ORYSA Visual Injury (%) ‘Cheniere’ Obs: 45%
  ORYSA Visual Injury (%) ‘Clearfield’ Obs: 60%
  ORYSA Visual Injury (%) ‘Cocodrie’ Obs: 45%
  ORYSA Visual Injury (%) ‘Lemont’ Obs: 35%
  ORYSA Visual Injury (%) ‘M202’ Obs: 55%
  ORYSA Visual Injury (%) ‘Wells’ Obs: 15%

## Cc1ccc(NC(=O)NC(C)(C)c2ccccc2)cc1 [Daimuron, N-(4-methylphenyl)-N′-(1-methyl-1-phenylethyl)-urea]
[2]; 35 g ai/ha
  Visual Injury (%) SEBEX Obs: 0%
[2]; 70 g ai/ha
  Visual Injury (%) SEBEX Obs: 0%
[2]; 140 g ai/ha
  Visual Injury (%) SEBEX Obs: 0%
[2]; 280 g ai/ha
  Visual Injury (%) SEBEX Obs: 0%
[3]; 35 g ai/ha
  Visual Injury (%) ECHCO Obs: 5%
[3]; 70 g ai/ha
  Visual Injury (%) ECHCO Obs: 0%
[3]; 140 g ai/ha
  Visual Injury (%) ECHCO Obs: 0%
[3]; 280 g ai/ha
  Visual Injury (%) ECHCO Obs: 10%
[4]; 35 g ai/ha
  Visual Injury (%) CYPDI Obs: 0%
[4]; 70 g ai/ha
  Visual Injury (%) CYPDI Obs: 0%
[4]; 140 g ai/ha
  Visual Injury (%) CYPDI Obs: 0%
[4]; 280 g ai/ha
  Visual Injury (%) CYPDI Obs: 0%
[1]
  ‘M202’ ORYSA Visual Injury (%) Obs: 3.3%
[1]; alone, 35 g ai/ha
  Visual Injury (%) ‘Lemont’ ORYSA Obs: 0%
[1]; alone, 70 g ai/ha
  Visual Injury (%) ‘Lemont’ ORYSA Obs: 0%
[1]; alone, 140 g ai/ha
  Visual Injury (%) ‘Lemont’ ORYSA Obs: 0%
[1]; alone, 280 g ai/ha
  Visual Injury (%) ‘Lemont’ ORYSA Obs: 0%

## C=CCN(CC=C)C(=O)C(Cl)Cl [Dichlormid]
[1]; safener 140 g ai/ha alone
  ORYSA Visual Injury (%) ‘Cheniere’ Obs: 0%
  ORYSA Visual Injury (%) ‘Cocodrie’ Obs: 0%
  ORYSA Visual Injury (%) ‘Lemont’ Obs: 0%

## CC(C)(SC(=O)N1CCCCC1)c1ccccc1 [Dimepiperate]
[1]; safener 280 g ai/ha alone
  ORYSA Visual Injury (%) ‘M202’ Obs: 10%

## CCOC(=O)c1nc(C(Cl)(Cl)Cl)n(-c2ccc(Cl)cc2Cl)n1 [Fenchlorazole-ethyl]
[1]
  ‘M202’ ORYSA Visual Injury (%) Obs: 0.0%

## FC(F)(F)C(=NOCC1OCCO1)c1ccc(Cl)cc1 [Fluxofenim, 1-(4-chlorophenyl)-2,2,2-trifluoroethanone O-(1,3-dioxolan-2-ylmethyl)oxime]
[1]
  ‘M202’ ORYSA Visual Injury (%) Obs: 3.3%

## CC1(C)OC(c2ccco2)CN1C(=O)C(Cl)Cl (centres unmarked) [Furilazole, 3-(dichloroacetyl)-5-(2-furanyl)-2,2-dimethyl-oxazolidine]
[1]
  ‘M202’ ORYSA Visual Injury (%) Obs: 3.3%
[1]; safener 70 g ai/ha alone
  ORYSA Visual Injury (%) ‘Lemont’ Obs: 0%

## N#C/C(=N\OCC1OCCO1)c1ccccc1 [Oxabetrinil, (αZ)-α-[(1,3-dioxolan-2-yl)methoxyimino]-benzeneacetonitrile]
[2]; 35 g ai/ha
  Visual Injury (%) SEBEX Obs: 0%
[2]; 70 g ai/ha
  Visual Injury (%) SEBEX Obs: 0%
[2]; 140 g ai/ha
  Visual Injury (%) SEBEX Obs: 0%
[2]; 280 g ai/ha
  Visual Injury (%) SEBEX Obs: 0%
[3]; 35 g ai/ha
  Visual Injury (%) ECHCO Obs: 0%
[3]; 70 g ai/ha
  Visual Injury (%) ECHCO Obs: 0%
[3]; 140 g ai/ha
  Visual Injury (%) ECHCO Obs: 0%
[3]; 280 g ai/ha
  Visual Injury (%) ECHCO Obs: 0%
[4]; 35 g ai/ha
  Visual Injury (%) CYPDI Obs: 0%
[4]; 70 g ai/ha
  Visual Injury (%) CYPDI Obs: 0%
[4]; 140 g ai/ha
  Visual Injury (%) CYPDI Obs: 0%
[4]; 280 g ai/ha
  Visual Injury (%) CYPDI Obs: 0%
[1]; alone, 35 g ai/ha
  Visual Injury (%) ‘Lemont’ ORYSA Obs: 0%
[1]; alone, 70 g ai/ha
  Visual Injury (%) ‘Lemont’ ORYSA Obs: 15%
[1]; alone, 140 g ai/ha
  Visual Injury (%) ‘Lemont’ ORYSA Obs: 0%
[1]; alone, 280 g ai/ha
  Visual Injury (%) ‘Lemont’ ORYSA Obs: 10%
